Measurements: patent US20190369107A1, “ZWITTERIONIC NANOPARTICLES” (priority 2017, published 2019)
“Also recorded” adds a separate entry of the source.

Test system: A549 cells
Assay: Toxicity tests of QDQRs on A549 cells (Cellomics Array Scan, Hoechst 33342 / MitoTracker Deep Red)
Assay type: cell-based, human
Conditions: 16 h incubation
Procedure: The culture medium consisted of 10% FCS in DMEM with 1% PenStrep and sodium pyruvate in each case. The incubation of the cells always took place at 37° C. and a CO2 content of 5%.
The zwitterionic Quantum Dots/Quantum Rods (QDQRs) nanoparticles were examined in various in vitro experiments with regard to their toxicity and non-specific cell uptake. Yellow-emitting QDQRs comprising the short- and long-chain zwitterionic ligand (QDQRs-17a and QDQRs-17b) were used for the studies to investigate a possible influence of the chain length of the ligand on the interactions of the QDQRs with cells. A549 cells were used for both toxicity and cell uptake studies. A549 cells are human basal epithelial cells derived from an adenocarcinoma of the lung which have been cultured as a cell line.
The toxicity of the zwitterionic QDQRs-17a and QDQRs-17b was tested using the Cellomics Array Scan. For the toxicity tests, A549 cells were plated on a 96-well plate and incubated with QDQR solutions in a concentration range of 25 to 500 nM. Cadmium chloride, which was used in a concentration range from 25 to 1,000 μM, was used as the positive control. The increase in the cadmium chloride concentration by a factor of 1,000 is due to the fact that a single QDQR of the tested samples contains about 8,200 cadmium atoms. Assuming that the totality of the nanoparticles dissolve and release the cadmium contained in them, the lowest concentration of 25 nM QDQRs used would correspond to a concentration of 205 μM cadmium chloride. After an incubation period of 16 hours, the cells were blended with a staining solution consisting of the cell nucleus dye Hoechst 33342 and the mitochondrial dye MitoTracker® Deep Red FM and then fixed with formaldehyde solution. The 96-well plates were then read out with the Cellomics Array Scan. A software was used to automatically determine the parameters number of cells, cell nucleus intensity and cell nucleus size using the intensity of the dye by Hoechst, and the transmembrane potential of the mitochondria on the basis of the mitochondrial dye. In addition, microscopic images of the cells were taken to control the number of cells and cell morphology.
For the toxicity tests, A549 cells were plated in culture medium on a 96-well plate (10,000 cells per well) and incubated overnight. When the medium had been sucked off, the samples to be tested (diluted with culture medium, 100 μL per well) were applied in different concentrations and incubated for 16 hours. The samples were then removed and the cells were mixed with 100 μL staining solution (final concentration: 75 nM MitoTracker® Deep Red and 2.5 μg/ml Hoechst 33342 in DMEM with 10% FCS) and incubated for a further 30 minutes. To fix the cells, the staining solution was removed and 100 μL of a warm fixing solution (3.7% formaldehyde in Dulbecco's PBS, DPBS) were added. After 20 minutes, the fixing solution was sucked off and washed twice with DPBS before the samples were measured on the Cellomics Array Scan.

SMILES: [Cl][Cd][Cl] [cadmium chloride]
- morphological changes of the cells or cell nuclei in microscopic images (cadmium chloride at 100 μM or more): get globular
- number of cells per well (over the tested concentration range, FIG. 1 A): decreases significantly; also recorded: decreases noticeably
- cell nucleus intensity (Hoechst 33342) (over the tested concentration range, FIG. 1 B): decreases significantly
- cell nucleus size (over the tested concentration range, FIG. 1 C): decreases significantly
- transmembrane potential of the mitochondria (over the tested concentration range, FIG. 1 D): first increases in the concentration range from 50 to 100 μM and then decreases again
- concentration at which a toxic effect on the cells is shown (positive control tested 25 to 1,000 μM): ≥ 100 µM
